# Results: publication PMC7426420, “Cupid, a cell permeable peptide derived from amoeba, capable of delivering GFP into a diverse range of species” (Scientific Reports, 2020)
# Tested on: Dictyostelium discoideum AX2 strain cells
# Experiment: Cell penetration into Dictyostelium amoeba cells, fluorescence microscopy of fixed cells
# Type: cell-based
# Conditions: 10 µM, 60 min in buffer, washed 3 times, fixed with Fluorsave, green fluorescent filter; GFP proteins denatured, non-fluorescent when added
# Method: Dictyostelium discoideum AX2 strain cells were grown on Klebsiella aerogenes plates. For experimentation, cells at the growth zone were collected and washed 5 times with 10 mM potassium phosphate buffer, pH 7.2 and seeded in slide chambers at a density of 10^5 cells/mL. Cells were incubated with FITC-labelled Cupid, Cupid-GFP or H-GFP at the doses indicated for 60 min, washed 3 times in buffer and fixed in situ using Fluorsave (Calbiochem, UK) under a coverslip. Cell microscopy was performed on an upright fluorescence microscope (Olympus BX61) with the green fluorescent filter set, coupled with a digital camera.
row,Substance,cells become fluorescent (cell-penetrating capability)
1,RRVQIWFQNKRAKVKR [F-Cupid],caused the cells to become fluorescent
2,fluorescein-labelled BSA: fluorescein-labelled BSA control (data not shown),did not
